# Where no end group is shown, it is not given here.
# Details: rats, lung instillation, 10 μg salmon calcitonin + 1 mg FCIGRL vs 10 μg salmon calcitonin alone
# Method: An aqueous saline solution containing 10 μg of salmon calcitonin was instilled into the lungs of rats and serum calcitonin levels were measured by ELISA. An aqueous saline solution containing 10 μg of salmon calcitonin and 1 mg of the tight junction agonist peptide FCIGRL was instilled into the lungs of rats and serum calcitonin levels were measured by ELISA.
substance,measurement,value
FCIGRL [FCIGRL],increase in area under the curve (AUC) of serum calcitonin,approximately 10.6 fold
same,increase in observed peak serum calcitonin levels,approximately three-fold
